This passage reports IC50 results from publication PMC11174122 (Molecules, 2024).

Where two headings read alike, the source gives them in different places.

In general, IC50 refers to the point on the concentration scale where inhibition reaches its midpoint.

In test [1] the test system is Bel-7402. Briefly: MTT cytotoxic activity assay, Bel-7402. Format: cell-based. To be noted: Homo sapiens, 48 h. How it is done:
(§1) MCF-7, Hela, and HUCEC were cultured in DMEM (Beijing Solarbio) containing 10% FBS, 100 U/mL penicillin, and […] at 37 °C and 5% CO2. Bel-7402, A549, PC-3M were cultured in RPMI-1640 (Beijing Solarbio) media supplemented with 10% FBS (Wuhan Punuosai Life Science and Technology Co., Ltd., Wuhan, China), 100 U/mL penicillin, and […] at 37 °C and 5% CO2. MTT (Beijing Solarbio) was prepared with PBS at a concentration of 5 mg/mL. All tested drugs were prepared in a solution with a concentration of 20 mM, with dimethyl sulfoxide as the solvent.
(§2) The cells were inoculated into 96-well plates at a density of 5 × 10^3 cells/well. When the cell fusion reached 70–80%, the drug was treated for 48 h. Subsequently, 20 μL MTT was added to each well and incubated at 37 °C with 5% CO2 for 4 h. After that, the medium was discarded and 150 μL DMSO was added to each well. The absorbance was measured at 490 nm with an enzymoleter.
(Tetrazolium dyes change colour on reduction, which living cells bring about.)

The test system of test [2] is A549. Nature of the test: MTT cytotoxic activity assay, A549. Format: cell-based. To be noted: Homo sapiens, 48 h. The method, then:
as §1, §2

For test [3], the system named is Hela. Nature of the test: MTT cytotoxic activity assay, Hela. Format: cell-based, human. The following applies: Homo sapiens, HeLa; MTT, 48 h. How it is done:
as §1, §2

Test [4] deals with MCF-7. Nature of the test: MTT cytotoxic activity assay, MCF-7. Format: cell-based. The following applies: Homo sapiens, MCF7, 48 h. How it is done: as §1, §2
In test [5] the test system is PC-3M. Briefly: MTT cytotoxic activity assay, PC-3M. It is filed as cell-based. The following applies: Homo sapiens. How it is done: as §1, §2

As for `CC(C)C[C@H](NC(=O)OC(C)(C)C)C(=O)Oc1ccc(/C=C/C(=O)c2ccc(OC(=O)[C@H](CC(C)C)NC(=O)OC(C)(C)C)cc2O)cc1` [Compound 1, (E)-4-(3-(4-(((tert-butoxycarbonyl)leucyl)oxy)-2-hydroxyphenyl)-3-oxoprop-1-en-1-yl)phenyl (tert-butoxycarbonyl)leucinate], the 50% inhibitory concentration (IC50) in test [1] was more than 200 µM; in test [2] it was more than 200 µM; in test [3], more than 200 µM; in test [4], more than 200 µM; in test [5] (read-out: IC50 PC-3M, 48 h), more than 200 µM.
For the molecule `CCC(C)CC(NC(=O)OC(C)(C)C)C(=O)Oc1ccc(/C=C/C(=O)c2ccc(OC(=O)C(CC(C)CC)NC(=O)OC(C)(C)C)cc2O)cc1` (stereo not drawn) [Compound 2, (E)-4-(3-(4-((2-((tert-butoxycarbonyl)amino)-4-methylhexanoyl)oxy)-2-hydroxyphenyl)-3-oxoprop-1-en-1-yl)phenyl 2-((tert-butoxycarbonyl)amino)-4-methylhexanoate], the half-maximal inhibitory concentration (IC50) in test [1] was more than 200 µM; in test [2] it was more than 200 µM; in test [3], more than 200 µM; in test [4], more than 200 µM; in test [5] (read-out: IC50 PC-3M, 48 h), more than 200 µM.
In the case of `CC(C)[C@H](NC(=O)OC(C)(C)C)C(=O)Oc1ccc(/C=C/C(=O)c2ccc(OC(=O)[C@@H](NC(=O)OC(C)(C)C)C(C)C)cc2O)cc1` [Compound 3, (E)-4-(3-(4-(((tert-butoxycarbonyl)valyl)oxy)-2-hydroxyphenyl)-3-oxoprop-1-en-1-yl)phenyl (tert-butoxycarbonyl)valinate], the concentration for half-maximal inhibition (IC50) in test [1] is more than 200 µM; in test [2] it was more than 200 µM; in test [3], more than 200 µM; in test [4], more than 200 µM; in test [5] (read-out: IC50 PC-3M, 48 h), more than 200 µM.
Turning to `CC(C)(C)OC(=O)N1CCCC1C(=O)Oc1ccc(/C=C/C(=O)c2ccc(OC(=O)[C@@H]3CCCN3C(=O)OC(C)(C)C)cc2O)cc1` (stereo partly drawn) [Compound 4, (E)-2-(4-(3-(4-(((tert-butoxycarbonyl)prolyl)oxy)-2-hydroxyphenyl)-3-oxoprop-1-en-1-yl)phenyl) 1-(tert-butyl) pyrrolidine-1,2-dicarboxylate], the IC50 was more than 200 µM in test [1]; more than 200 µM in test [2]; more than 200 µM in test [3]; more than 200 µM in test [4]; more than 200 µM in test [5] (read-out: IC50 PC-3M, 48 h).
As for `CN(CC(=O)Oc1ccc(/C=C/C(=O)c2ccc(OC(=O)CN(C)C(=O)OC(C)(C)C)cc2O)cc1)C(=O)OC(C)(C)C` [Compound 5, (E)-4-(3-(4-((N-(tert-butoxycarbonyl)-N-methylglycyl)oxy)-2-hydroxyphenyl)-3-oxoprop-1-en-1-yl)phenyl N-(tert-butoxycarbonyl)-N-methylglycinate], the IC50 in test [1] is more than 200 µM; in test [2], more than 200 µM; in test [3] it was more than 200 µM; in test [4], more than 200 µM; in test [5] (read-out: IC50 PC-3M, 48 h), more than 200 µM.
For the molecule `CC(C)(C)OC(=O)NC(C(=O)Oc1ccc(/C=C/C(=O)c2ccc(OC(=O)C(NC(=O)OC(C)(C)C)C3CCCC3)cc2O)cc1)C1CCCC1` [Compound 6, 4-((E)-3-(4-((S)-2-((tert-butoxycarbonyl)amino)-2-cyclopentylacetoxy)-2-hydroxyphenyl)-3-oxoprop-1-en-1-yl)phenyl(R)-2-((tert-butoxycarbonyl)amino)-2-cyclopentylacetate], the IC50 was more than 200 µM in test [1]; more than 200 µM in test [2]; more than 200 µM in test [3]; more than 200 µM in test [4]; more than 200 µM in test [5] (read-out: IC50 PC-3M, 48 h).
In the case of `CC(C)(C)OC(=O)NC(C(=O)Oc1ccc(/C=C/C(=O)c2ccc(O)cc2O)cc1)C1CCCC1` [Compound 7, (E)-4-(3-(2,4-dihydroxyphenyl)-3-oxoprop-1-en-1-yl)phenyl(R)-2-((tert-butoxycarbonyl)amino)-2-cyclopentylacetate], the 50% inhibitory concentration (IC50) in test [1] is 27.9 µM; in test [2], 27.4 µM; in test [3], 28.7 µM; in test [4], 29.8 µM; in test [5] (read-out: IC50 PC-3M, 48 h) it was 33.2 µM.
Regarding `CC(C)(C)OC(=O)NC(C(=O)Oc1ccc(/C=C/C(=O)c2ccc(OC(=O)C(NC(=O)OC(C)(C)C)C3CCCCC3)cc2O)cc1)C1CCCCC1` [Compound 8, 4-((E)-3-(4-((R)-2-((tert-butoxycarbonyl)amino)-2-cyclohexylacetoxy)-2-hydroxyphenyl)-3-oxoprop-1-en-1-yl)phenyl(S)-2-((tert-butoxycarbonyl)amino)-2-cyclohexylacetate], the IC50 in test [1] was more than 200 µM; in test [2], more than 200 µM; in test [3], more than 200 µM; in test [4] it was more than 200 µM; in test [5] (read-out: IC50 PC-3M, 48 h) it was more than 200 µM.
Take `C[C@H](NC(=O)OC(C)(C)C)C(=O)Oc1ccc(C(=O)/C=C/c2ccc(OC(=O)[C@@H](C)NC(=O)OC(C)(C)C)cc2)c(O)c1` [Compound 10, 4-((E)-3-(4-(((tert-butoxycarbonyl)-D-alanyl)oxy)phenyl)acryloyl)-3-hydroxyphenyl (tert-butoxycarbonyl)-L-alaninate]: the concentration for half-maximal inhibition (IC50) in test [1] is more than 200 µM; in test [2] it was more than 200 µM; in test [3], more than 200 µM; in test [4], more than 200 µM; in test [5] (read-out: IC50 PC-3M, 48 h), more than 200 µM.
For the molecule `CC(NC(=O)OC(C)(C)C)C(=O)Oc1ccc(C=CC(=O)c2ccc(O)cc2O)cc1` [Compound 11, (E)-4-(3-(2,4-dihydroxyphenyl)-3-oxoprop-1-en-1-yl)phenyl(tert-butoxycarbonyl)-D-alaninate], the concentration for half-maximal inhibition (IC50) was determined as 87.6 µM in test [1]; 100 µM in test [2]; 99.9 µM in test [3]; 160 µM in test [4]; 122 µM in test [5] (read-out: IC50 PC-3M, 48 h).
Taken in the same sequence, the figures for `CC(C)(C)OC(=O)NC(CCc1ccccc1)C(=O)Oc1ccc(C(=O)/C=C/c2ccc(OC(=O)[C@H](CCc3ccccc3)NC(=O)OC(C)(C)C)cc2)c(O)c1` (stereo partly drawn) [Compound 12, 4-((E)-3-(4-((2-((tert-butoxycarbonyl)amino)-4-phenylbutanoyl)oxy)-2-hydroxyphenyl)-3-oxoprop-1-en-1-yl)phenyl(2S)-2-((tert-butoxycarbonyl)amino)-4-phenylbutanoate] were more than 200 µM, more than 200 µM, more than 200 µM, more than 200 µM and more than 200 µM.
The like results for `CC(C)(C)OC(=O)N[C@@H](CCc1ccccc1)C(=O)Oc1ccc(/C=C/C(=O)c2ccc(O)cc2O)cc1` [Compound 13, (E)-4-(3-(2,4-dihydroxyphenyl)-3-oxoprop-1-en-1-yl)phenyl(S)-2-((tert-butoxycarbonyl)amino)-4-phenylbutanoate] were, in that order, 35.3 µM, 48.9 µM, 29.2 µM, 60.5 µM and 37.4 µM.
The like results for `CC(C)(C)OC(=O)N[C@@H](Cc1ccccc1Br)C(=O)Oc1ccc(C(=O)/C=C/c2ccc(OC(=O)[C@@H](Cc3ccccc3Br)NC(=O)OC(C)(C)C)cc2)c(O)c1` [Compound 14, 4-((E)-3-(4-(((S)-3-(2-bromophenyl)-2-((tert-butoxycarbonyl)amino)propanoyl)oxy)-2-hydroxyphenyl)-3-oxoprop-1-en-1-yl)phenyl(R)-3-(2-bromophenyl)-2-((tert-butoxycarbonyl)amino)propanoate] were, in that order, more than 200 µM, more than 200 µM, more than 200 µM, more than 200 µM and more than 200 µM.
Consider `CC(C)(C)OC(=O)N[C@H](Cc1ccccc1Br)C(=O)Oc1ccc(/C=C/C(=O)c2ccc(O)cc2O)cc1` [Compound 15, (E)-4-(3-(2,4-dihydroxyphenyl)-3-oxoprop-1-en-1-yl)phenyl(R)-3-(2-bromophenyl)-2-((tert-butoxycarbonyl)amino)propanoate], for which the IC50 in test [1] stood at 38.4 µM; in test [2], 42.6 µM; in test [3] it was 27.4 µM; in test [4], 50.9 µM; in test [5] (read-out: IC50 PC-3M, 48 h), 30.2 µM.
The like results for `CC(C)(C)OC(=O)N[C@@H](Cc1ccccc1Cl)C(=O)Oc1ccc(C(=O)/C=C/c2ccc(OC(=O)[C@@H](Cc3ccccc3Cl)NC(=O)OC(C)(C)C)cc2)c(O)c1` [Compound 16, 4-((E)-3-(4-(((S)-2-((tert-butoxycarbonyl)amino)-3-(2-chlorophenyl)propanoyl)oxy)-2-hydroxyphenyl)-3-oxoprop-1-en-1-yl)phenyl(R)-2-((tert-butoxycarbonyl)amino)-3-(2-chlorophenyl)propanoate] were, in that order, more than 200 µM, more than 200 µM, more than 200 µM, more than 200 µM and more than 200 µM.
Take `CC(C)(C)OC(=O)N[C@H](Cc1ccccc1Cl)C(=O)Oc1ccc(/C=C/C(=O)c2ccc(O)cc2O)cc1` [Compound 17, (E)-4-(3-(2,4-dihydroxyphenyl)-3-oxoprop-1-en-1-yl)phenyl(R)-2-((tert-butoxycarbonyl)amino)-3-(2-chlorophenyl)propanoate]: the half-maximal inhibitory concentration (IC50) in test [1] is 33.2 µM; in test [2] it was 40.7 µM; in test [3] it was 30.4 µM; in test [4], 60.2 µM; in test [5] (read-out: IC50 PC-3M (text), 48 h) it was 37.4 µM; in test [5] (read-out: IC50 PC-3M, 48 h), 38.1 µM.
